# Results from patent US10259844B2, “Endometriosis cell targeting peptide and uses thereof” (Sanford-Burnham Medical Research Institute, priority 2005, dated 2019).
# Where no end group is shown, it is not given here. The star is where a group is joined. FITC = O=C1OC2(c3ccc(O)cc3Oc3cc(O)ccc32)c2ccc(NC(=S)*)cc21
# Experiments:
# [1] = tested on: Ishikawa cells; experiment: Fluorescence microscopy of overlay on Ishikawa cells; type: cell-based, human
# Description: Twenty μl of C16-z13 peptide (10 mM in chloroform:methanol 2:1) was mixed with 20 μl phosphatidylcholine (100 mM in chloroform) and 10 μl cholesterol (100 mM in chloroform) in a round bottom flask and evaporated in a rotary evaporator. The sample was dried in a vacuum, dissolved in 500 μl 0.3M citric acid, and frozen and thawed three times, followed by sonication for 10 min. Five hundred μl of 0.2M Na2CO3 and 20 μl of 1 μM Qdot605 streptavidin was added and heated at 60° C. for 1 hour. After adding 1 ml of 20 mM Hepes buffer, pH7.2, the liposome solution was centrifuged at 90,000 rpm for 30 min at 4° C. and the pellet dissolved in PBS.
# (§1) Ishikawa cells and A431 cells were grown on glass coverslips in 3.5 cm tissue culture plates. Each phage clone including z13 was added to these cells, incubated at 4° C. for 15 min, washed with cold PBS, and fixed with 1% paraformaldehyde (PFA) in PBS. Phage was detected using rabbit anti-T7 antibody and FITC-conjugated goat anti-rabbit IgG antibody. After washing three times with PBS, cells were fixed with 1% paraformaldehyde in PBS and inspected under a Zeiss Axioplan fluorescence microscope. Ishikawa cells grown on glass coverslips were incubated in medium containing FITC-z13 peptide (1 μg/ml) at 37° C. for 15 min. After washing with PBS, cells were fixed with 1% PFA in PBS, and inspected under the fluorescence microscope. Qdot-encapsulated and C16-z13 peptide coated liposomes were prepared as described above. Ishikawa cells were incubated with these liposomes at 37° C. for 15 min, washed with PBS, fixed with 1% PFA, and inspected under the fluorescence microscope. Qdot605-conjugated peptide, Qdot-cys-z13, or control peptide, Qdot-cys-m2, was added to the culture at 100 nM and left at 37° C. for 15 min.
# [2] = tested on: A431 cells; experiment: Fluorescence microscopy of overlay on A431 cells; type: cell-based, human
# Description: as §1
# [3] = tested on: human endometrial tissues grafted onto the peritoneal wall; experiment: In vivo targeting in SCID mouse peritoneal endometriosis model; conditions: intraperitoneal injection, 30 min
# Description: For in vivo targeting, Qdot-cys-z13 or Qdot-cys-m2 (200 nmoles in 200 μl PBS/mouse) was injected into the peritoneum of a SCID mouse that had received intraperitoneal grafts of human endometrial tissues. The abdomen of the mouse was massaged gently to distribute injected material to the entire peritoneal cavity. After 30 min, mice were sacrificed, and the endometrial graft and organs facing the peritoneum were isolated. Tissues were washed in PBS, embedded in O. C. T. compound (Sakura Finetechnical, Tokyo, Japan) and cryosections were made. Sections were fixed with cold methanol, covered with Vecta-shield with DAPI (Vector), and inspected with a fluorescence microscope.
# Immunohistochemistry for the progesterone receptor (PR) was performed as follows: Frozen mouse tissue sections prepared from Qdot-cys-z13 injected mice, Qdot-cys-m2 injected mice, and control mice without Qdot injection were fixed in cold methanol for 15 min. Tissue sections were blocked with avidin (5 ng/ml) in PBS at room temperature for 15 min, followed by incubation with 10% goat serum containing biotin (5 μg/ml) for 1 hour. The tissue sections were then applied to immunohistochemistry with a diluted (1:100) anti-PR antibody (DAKO, Carpinteria, Calif.) at 4° C. for 20 hours. After washing with PBS, sections were incubated with biotinylated anti-rabbit IgG antibody (Zymed) and by streptavidin conjugated Qdot565. […]
substance,measurement,setting,value
FITC-z13: synthetic fluorescence-tagged z13 peptide whose amino-terminus was conjugated ({FITC}-VRRADNRPG),binding of fluorescent peptide to Ishikawa cells,"[1]; 1 μg/ml, 37° C. 15 min",bound
same,fluorescence of fluorescent peptide on A431 cells,[2],did not show fluorescence
Qdot-cys-m2: Qdot605 conjugate of the control peptide cys-m2 CRGMSDTTAL (also: Qdot605 conjugate),fluorescence of Qdot-conjugated peptide on Ishikawa cells,"[1]; 100 nM, 37° C. 15 min",did not show fluorescence signals
same,fluorescence at the surface epithelia of endometriosis lesions,[3],did not show fluorescence
same,fluorescence in other mouse tissues facing the peritoneum,[3],did not show fluorescence
VRRADNRPG [z13 peptide],binding to Ishikawa cells regardless of modification at the amino terminus,"[1]; conclusion from FITC, C16 liposome and Qdot conjugates",efficiently binds
